In one series the target is T1, HIV-1 RT (Human immunodeficiency virus type 1 group M subtype B, UniProt P04585).
T1 construct: The biotin-dUTP was incorporated by reverse transcriptase (Sigma, St. Louis, MO, USA); purchased Sigma
The experiment in a line: Inhibitory activity against HIV-1 RT (biotin-dUTP incorporation, colorimetric). It counts as biochemical. Particulars: for IC50: mean of three separate experiments, variation less than 15%. On the procedure:
Oligo(dT) (TaKaRa Co., Otsu, Japan) was immobilized via its 5'-terminal phosphate to Covalink-NH microtiter plates (NUNC Co., Roskilde, Denmark). The biotin-dUTP was incorporated by reverse transcriptase (Sigma, St. Louis, MO, USA). Briefly, a serial concentration of inhibitor was added to the mixture, which contained 50 mmol/L Tris-HCl (pH 8.3), 3 mmol/L MgCl2, 75 mmol/L KCl, 5 mmol/L DTT, 0.13 mg/mL BSA, 10 μg/mL poly (A), 0.75 μM biotin-11-Dutp, 1.5 μM dTTP and HIV-1 RT. After incubation at 37 °C for 1h, washing buffer, which contained 50 mmol/L Tris-HCl (pH 7.5), 0.15 mol/L NaCl, 0.05 mmol/L MgCl2 and 0.02% Tween20, was used to wash the plate. Then each well of the plate was added […] 1% BSA and incubated at room temperature for another 30 min. The plate was washed with the same buffer for 3 times. Before further incubation at 37 °C for 1 h, 50 μL of alkaline phosphatase streptavidin (SA-ALP) solution (100 ng/mL) was added to each well and washed again as above. Finally, 50 μL of p-nitrophenyl phosphate, disodium (PNPP, 1 mg/mL, pH 9.5) was added and incubated at 37 °C for 30 min. 0.5 mol/L NaOH was added to stop the reaction and a colorimetric streptavidin-alkaline phosphatase reporter system was used to detect and quantify the result.

Here are results for 37 compounds from paper PMC6271041, “Synthesis and Biological Evaluation of Novel 2-Arylalkylthio-5-iodine-6-substituted-benzyl-pyrimidine-4(3H)-ones as Potent HIV-1 Non-Nucleoside Reverse Transcriptase Inhibitors” (Molecules, 2014).

A word on the melting point: it is the temperature, or range, at which the solid turns liquid. As usually defined, the IC50 is the concentration at which inhibition is half-maximal. A lower IC50 goes with inhibition by little substance.

With `COC(=O)c1ccc(CSc2nc(Cc3cc(C)cc(C)c3)cc(=O)[nH]2)cc1` [7k, 2-(4-Methoxycarbonylbenzylthio)-6-(3,5-dimethylbenzyl)uracil], the melting point lay in the range of 221 to 224 °C. This compound also displayed an IC50 on HIV-1 RT of 7.5 µM.

Turning to `COC(=O)c1ccc(CSc2nc(Cc3cc(F)cc(F)c3)c(I)c(=O)[nH]2)cc1` [8l, 2-(4-Methoxycarbonylbenzylthio)-5-iodine-6-(3,5-difluorobenzyl)uracil], the melting point was 210 to 213 °C. At HIV-1 RT, the “fold more active compared to nevirapine (HIV-1 RT IC50)” value is on record as “about 10 fold” and the 50% inhibitory concentration (IC50) was 0.71 µM. `O=c1[nH]c(SCCc2ccc([N+](=O)[O-])cc2)nc(Cc2ccccc2)c1I` [8m, 2-(4-Nitrophenethylthio)-5-iodine-6-benzyluracil] registered a melting point of 209 to 212 °C. On HIV-1 RT, half-maximal inhibition (IC50) was put at 8.64 µM.

For the compound `O=c1cc(Cc2cc(F)cc(F)c2)nc(SCCCOc2ccccc2)[nH]1` [7u, 2-(Phenoxypropylthio)-6-(3,5-difluorobenzyl)uracil], the melting point was in the range of 100 to 101 °C. On HIV-1 RT, the IC50 worked out at 14.4 µM.

Regarding `O=c1cc(Cc2cc(F)cc(F)c2)nc(SCc2ccc([N+](=O)[O-])cc2)[nH]1` [7c, 2-(4-Nitrobenzylthio)-6-(3,5-difluorobenzyl)uracil], at HIV-1 RT, the IC50 was above 100 µM. In turn, `Cc1cc(C)cc(Cc2nc(SCc3ccc(C#N)cc3)[nH]c(=O)c2I)c1` [8e, 2-(4-Cyanobenzylthio)-5-iodine-6-(3,5-dimethylbenzyl)uracil] displayed a melting point of 224 to 227 °C. On HIV-1 RT, this compound had a 50% inhibitory concentration (IC50) of 4.03 µM. Compound `Cc1cc(C)cc(Cc2cc(=O)[nH]c(SCc3ccc(C#N)cc3)n2)c1` [7e, 2-(4-Cyanobenzylthio)-6-(3,5-dimethylbenzyl)uracil] had a melting point of 193 to 196 °C. In addition, the IC50 against HIV-1 RT came out at 29.6 µM. `COC(=O)c1ccc(CSc2nc(Cc3cc(F)cc(F)c3)cc(=O)[nH]2)cc1` [7l, 2-(4-Methoxycarbonylbenzylthio)-6-(3,5-difluorobenzyl)uracil] showed a melting point of 279 to 280 °C. On HIV-1 RT, the IC50 was above 100 µM. In the case of `COC(=O)c1ccc(CSc2nc(Cc3cc(C)cc(C)c3)c(I)c(=O)[nH]2)cc1` [8k, 2-(4-Methoxycarbonylbenzylthio)-5-iodine-6-(3,5-dimethylbenzyl)uracil], the melting point was 208 to 211 °C. The same compound came in with a half-maximal inhibitory concentration (IC50) against HIV-1 RT of 1.11 µM. `O=c1[nH]c(SCCOc2ccc([N+](=O)[O-])cc2)nc(Cc2ccccc2)c1I` [8p] came in with a melting point of 204 to 205 °C. The same compound returned an IC50 against HIV-1 RT of 6.28 µM. `COC(=O)c1ccc(CSc2nc(Cc3ccccc3)c(I)c(=O)[nH]2)cc1` [8j, 2-(4-Methoxycarbonylbenzylthio)-5-iodine-6-benzyluracil] returned a melting point of 214 to 216 °C. The compound further displayed a half-maximal inhibitory concentration (IC50) on HIV-1 RT of 3.64 µM. `Cc1cc(C)cc(Cc2cc(=O)[nH]c(SCc3ccc([N+](=O)[O-])cc3)n2)c1` [7b, 2-(4-Nitrobenzylthio)-6-(3,5-dimethylbenzyl)uracil] yielded a melting point of 218 to 220 °C. On HIV-1 RT, this compound came in with an IC50 of 3.32 µM. `O=c1cc(Cc2ccccc2)nc(SCCCOc2ccccc2)[nH]1` [7s, 2-(Phenoxypropylthio)-6-benzyluracil] had a melting point of 89 to 91 °C. This compound registered an IC50 on HIV-1 RT of 16.7 µM.

On to `CC(=O)c1ccc(CSc2nc(Cc3ccccc3)cc(=O)[nH]2)cc1` [7g, 2-(4-Acetylbenzylthio)-6-benzyluracil], for which the melting point was 204 to 205 °C. Besides, on HIV-1 RT, half-maximal inhibition (IC50) required 55 µM.

Compound `O=c1[nH]c(SCCc2ccc([N+](=O)[O-])cc2)nc(Cc2cc(F)cc(F)c2)c1I` [8o, 2-(4-Nitrophenethylthio)-5-iodine-6-(3,5-difluorobenzyl)uracil] gave a melting point of 220 to 221 °C. On HIV-1 RT, this compound displayed an IC50 of 6.88 µM. Compound `O=c1cc(Cc2ccccc2)nc(SCOCc2ccccc2)[nH]1` [7v, 2-(Benzyloxymethylthio)-6-benzyluracil] registered a melting point of 118 to 120 °C. Besides, the IC50 at HIV-1 RT was found to be 12.9 µM.

Regarding `O=c1cc(Cc2ccccc2)nc(SCc2ccc([N+](=O)[O-])cc2)[nH]1` [7a, 2-(4-Nitrobenzylthio)-6-benzyluracil], the melting point was in the range of 192 to 194 °C. The IC50 on HIV-1 RT is above 100 µM. As to `Cc1cc(C)cc(Cc2cc(=O)[nH]c(SCOCc3ccccc3)n2)c1` [7w, 2-(Benzyloxymethylthio)-6-(3,5-dimethylbenzyl)uracil], the melting point is 134 to 136 °C. For the same compound, the midpoint of inhibition on HIV-1 RT, the IC50, lay at 1.82 µM.

`O=c1[nH]c(SCc2ccc([N+](=O)[O-])cc2)nc(Cc2cc(F)cc(F)c2)c1I` [8c, 2-(4-Nitrobenzylthio)-5-iodine-6-(3,5-difluorobenzyl)uracil] returned a melting point of 203 to 206 °C. The compound further returned an IC50 on HIV-1 RT of 5.5 µM. Turning to `O=c1[nH]c(SCOCc2ccccc2)nc(Cc2ccccc2)c1I` [8v, 2-(Benzyloxymethylthio)-5-iodine-6-benzyluracil], the melting point lay within 133 to 135 °C. The same compound showed an IC50 against HIV-1 RT of 10.2 µM. For `Cc1cc(C)cc(Cc2cc(=O)[nH]c(SCCCOc3ccccc3)n2)c1` [7t, 2-(Phenoxypropylthio)-6-(3,5-dimethylbenzyl)uracil], the melting point is 100 to 102 °C. Moreover, at HIV-1 RT, the half-maximal inhibitory concentration (IC50) was 2.64 µM. `N#Cc1ccc(CSc2nc(Cc3ccccc3)cc(=O)[nH]2)cc1` [7d, 2-(4-Cyanobenzylthio)-6-benzyluracil] came in with a melting point of 190 to 193 °C. Also, the 50% inhibitory concentration (IC50) against HIV-1 RT is above 100 µM. In the case of `CC(C)c1c(Cc2ccccc2)n(COCc2ccccc2)c(=O)[nH]c1=O` [TNK-651, reference compound], the 50% inhibitory concentration (IC50) against HIV-1 RT came to 0.14 µM.

Regarding `O=c1[nH]c(SCCCOc2ccccc2)nc(Cc2ccccc2)c1I` [8s, 2-(Phenoxypropylthio)-5-iodine-6-benzyluracil], the melting point lay in the range of 135 to 137 °C. At HIV-1 RT, the IC50 is 5.88 µM. As to `Cc1cc(C)cc(Cc2nc(SCc3ccc([N+](=O)[O-])cc3)[nH]c(=O)c2I)c1` [8b, 2-(4-Nitrobenzylthio)-5-iodine-6-(3,5-dimethylbenzyl)uracil], the melting point fell in the range of 224 to 228 °C. Besides, the IC50 against HIV-1 RT was determined as 1.66 µM. The like results for `Cc1cc(C)cc(Cc2nc(SCOCc3ccccc3)[nH]c(=O)c2I)c1` [8w, 2-(Benzyloxymethylthio)-5-iodine-6-(3,5-dimethylbenzyl)uracil] were, in that order, 200 to 202 °C and 8.75 µM. In turn, `N#Cc1ccc(CSc2nc(Cc3cc(F)cc(F)c3)cc(=O)[nH]2)cc1` [7f, 2-(4-Cyanobenzylthio)-6-(3,5-difluorobenzyl)uracil] had a melting point of 205 to 208 °C. Besides, the IC50 against HIV-1 RT was found to be 15.8 µM. Regarding `O=c1cc(Cc2cc(F)cc(F)c2)nc(SCCc2ccc([N+](=O)[O-])cc2)[nH]1` [7o, 2-(4-Nitrophenethylthio)-6-(3,5-difluorobenzyl)uracil], the melting point was in the range of 220 to 222 °C. The concentration for half-maximal inhibition (IC50) against HIV-1 RT amounted to 18.1 µM. For the compound `Cc1cc(C)cc(Cc2nc(SCCCOc3ccccc3)[nH]c(=O)c2I)c1` [8t, 2-(Phenoxypropylthio)-5-iodine-6-(3,5-dimethylbenzyl)uracil], the melting point is 165 to 167 °C. At HIV-1 RT, this compound returned an IC50 of 12.9 µM. The compound `N#Cc1ccc(CSc2nc(Cc3cc(F)cc(F)c3)c(I)c(=O)[nH]2)cc1` [8f, 2-(4-Cyanobenzylthio)-5-iodine-6-(3,5-difluorobenzyl)uracil] registered a melting point of 216 to 219 °C. Moreover, the IC50 against HIV-1 RT stood at 4.49 µM. As to `COC(=O)c1ccc(CSc2nc(Cc3ccccc3)cc(=O)[nH]2)cc1` [7j, 2-(4-Methoxycarbonylbenzylthio)-6-benzyluracil], the melting point was 214 to 217 °C. In addition, the IC50 on HIV-1 RT was above 100 µM. With `CC(=O)c1ccc(CSc2nc(Cc3ccccc3)c(I)c(=O)[nH]2)cc1` [8g, 2-(4-Acetylbenzylthio)-5-iodine-6-benzyluracil], the melting point lay within 219 to 220 °C. On HIV-1 RT, this compound yielded a half-inhibitory concentration (IC50) of 13.8 µM. `CC(=O)c1ccc(CSc2nc(Cc3cc(F)cc(F)c3)cc(=O)[nH]2)cc1` [7i, 2-(4-Acetylbenzylthio)-6-(3,5-difluorobenzyl)uracil] yielded a melting point of 251 to 254 °C. This compound gave an IC50 against HIV-1 RT of 33.9 µM. Consider `CC(=O)c1ccc(CSc2nc(Cc3cc(C)cc(C)c3)cc(=O)[nH]2)cc1` [7h, 2-(4-Acetylbenzylthio)-6-(3,5-dimethylbenzyl)uracil], for which the melting point was in the range of 195 to 197 °C. The IC50 on HIV-1 RT is 17 µM. Compound `O=c1cc(Cc2ccccc2)nc(SCCc2ccc([N+](=O)[O-])cc2)[nH]1` [7m, 2-(4-Nitrophenethylthio)-6-benzyluracil] had a melting point of 200 to 204 °C. In addition, inhibition at HIV-1 RT was half-maximal at 67.2 µM (IC50). `O=c1[nH]c(SCc2ccc([N+](=O)[O-])cc2)nc(Cc2ccccc2)c1I` [8a, 2-(4-Nitrobenzylthio)-5-iodine-6-benzyluracil] gave a melting point of 207 to 210 °C. Moreover, at HIV-1 RT, half-maximal inhibition (IC50) was put at 9.2 µM. `O=c1cc(Cc2cc(F)cc(F)c2)nc(SCCOc2ccc([N+](=O)[O-])cc2)[nH]1` [7r, 2-(2-(4-Nitrophenoxy)ethylthio)-6-(3,5-difluorobenzyl)uracil] yielded a melting point of 210 to 212 °C. Further, the concentration for half-maximal inhibition (IC50) against HIV-1 RT was 1.31 µM.
